# Measured values from patent publication EP4545076A1, “LAT1 SELECTIVE INHIBITORS FOR USE IN THE TREATMENT OF ADVERSE VENTRICULAR -REMODELLING AND OF HEART FAILURE” (Fundació Hospital Universitari Vall d'Hebron - Institut de …, priority 2023, dated 2025).
# Tests used:
# Format in all cases: in vivo, C57BL/6N mice
# heart hypertrophy = experiment: Cardiac hypertrophy in Transverse Aortic Constriction (TAC) mouse model; conditions: 12.5 mg/kg/day ip, vs control group
# Method: (§1) Twelve weeks C57BL/6N old mice were anesthetised with ketamine/xylazine (100 mg/kg and 10 mg/kg, respectively) and mechanically ventilated (SAR-830/AP, CWE). The transverse aortic arch was ligated by tying a 6-0 silk suture around the aorta and a 27G needle to yield a partial and reproducible constriction when the needle was removed. In sham animals, the aortic arch was visualized but not banded. Thorax was closed and analgesia was administrated (buprenorphine at 0.1 mg/kg every 12 hours until 48 hours). Mice were euthanized by lethal intraperitoneal dose of sodium pentobarbital (100 mg/kg) (Cat. No. 4579, Tocris).
# (§2) The LAT1 inhibitor JPH203 (Cat. No. S8667) was intraperitoneally (ip) and chronically administered, starting the following day after TAC surgery.
# (§3) Mice were randomly distributed to receive JPH203 at 12.5 mg/kg/day (prepared at 2 mg/ml of 40% 2-hydroxipropil-beta-cyclodextrin in saline). Sham and control groups received JPH203 vehicle (40% 2-hydroxipropil-beta-cyclodextrin in saline). Mice were euthanized 2 or 5 weeks after surgery.
# (§4) Mice underwent transthoracic echocardiography at baseline (before surgery) and at 1, 2 and 5 weeks after surgery. Echocardiography was performed using a Prospect T1 Preclinical High Frequency Ultrasound System with a PB406e Probe 40MHz transducer (S-Sharp) applied to the shaved chest wall of mice anesthetized with isoflurane. The ejection fraction (EF), the left ventricular end-systolic (LVESd) and diastolic (LVEDd) internal diameters, left ventricular anterior wall (LVAW) thickness and left ventricular posterior wall (LVPW) thickness were measured in M-mode recordings.
# Hypertrophy was calculated as heart weight-to-tibia length ratio. Echocardiographic parameters like IVS and LVPW thicknesses, as well as BNP and Myh7 mRNA levels, are the common parameters used to define myocardial hypertrophy.
# [1] = system: heart failure induced by aortic stenosis; experiment: Ventricular dilatation, cardiac function (echocardiography) and pulmonary oedema in TAC mouse model; conditions: after 5 weeks of TAC surgery, 12.5 mg/kg/day ip, vs control group
# Method: as §1, §2, §3, §4
# [2] = system: genes involved in BCAA catabolism; experiment: BCAA catabolism gene expression (microarray, RT-PCR) in hearts of TAC mice; conditions: 12.5 mg/kg/day ip
# Method: as §1, §2, §3
# Total RNA was extracted from heart samples using the NZY Total RNA Isolation kit (Cat. No. MB13402, NZY Tech) following the manufacturer's protocol.
# RNA was reverse transcribed into cDNA using a High-Capacity cDNA Reverse Transcription kit (Cat. No. 4368814, Applied Biosystems) following manufacturer's instructions. The thermal cycler (Bio-Rad) was programmed to run a single cycle of 25 °C for 10 min, 37 °C for 120 min, 85 °C for 5 min and kept at 4 °C until use.
# For determination of differential gene expression, RNA was isolated, as previously described, from mice myocardial samples and its quality was analysed by capillary electrophoresis (Bioanalyzer 2100, Agilent) and amplified using the WT Plus Reagent Kit-HT (Applied Biosystems, Thermo Fisher Scientific). Microarray service was done by the Molecular Diagnosis and Genomic platforms of the High Technology Unit (VHIR) using Clariom S type arrays specific for mouse transcriptome (plate format) (Applied Biosystems). […]
# myocardial BCAA content = experiment: LC-MS/MS of BCAA and leucine metabolites in heart extracts of TAC mice
# Method: as §1, §2, §3
# After 5 hours of fasting, mice were injected with an intraperitoneal dose of L-Leucine-^13C6, ^15N (Cat. No. 608068, Sigma-Aldrich) at 0.1 mg/g 30 minutes before euthanizing with a lethal injection of sodium pentobarbital resuspended in saline and injected at 100 mg/kg (Cat. No. 4579, Tocris).
# The levels of Branched-Chain Amino Acids (BCAA) and their main metabolites in biological samples will be determined by Liquid Chromatography tandem Mass Spectrometry (LC-MS/MS). Briefly, the determination of amino acids (BCAA but also amino acids involved in glutaminolysis) was performed by using a hydrophilic interaction chromatography (HILIC) with an amide column. After addition of the adequate internal standard (containing labelled analogues), protein precipitation with organic solvents and centrifugation, the supernatant was injected into the LC-MS/MS system operating in a Selected Reaction Monitoring (SRM) method by acquiring two transitions for each compound. The determination of α-ketoacids, α-hydroxy acids and SCFA (including the main BCAA metabolites and other compounds related with glutaminolysis) was performed by oBHA derivatization. The internal standard (containing labelled analogues) was added into the sample and the mixture was derivatized by adding a derivatizing mixture consisting in oBHA:EDC (1:1) in pyridine. After reaction for 1 h at room temperature, 1 mL of milliQ water and 4 mL of ethyl acetate was added to perform a liquid-liquid extraction. […] Quantification was performed by means of external calibration using authentic referent material. […] Several quality control samples (QCs) were analysed with every analytical batch with the aim of checking the inter-batch robustness of the results. […]
# interstitial collagen = experiment: Cardiac fibrosis in Transverse Aortic Constriction (TAC) mouse model; conditions: 12.5 mg/kg/day ip
# Method: as §1, §2, §3
# Hearts were fixed in buffered 4% paraformaldehyde and embedded in paraffin for histological evaluation. The amount of interstitial collagen deposition was determined in 4 µm transverse sections at the papillary muscles level stained with Picrosirius red (Sigma-Aldrich). At least ten random photomicrographs per animal were taken with the Leica DM IRBE Inverted Fluorescence Microscope at x200 magnification. The analysis was performed using Image J 1.50 Software. Interstitial fibrosis was expressed as the percentage of fibrotic area with respect to total area under quantification, perivascular fibrosis was manually excluded from the analysis.
# [3] = 13C,15N-leucine ip 30 minutes before heart extraction, 2 weeks of TAC, 12.5 mg/kg/day ip
smiles,measurement,setting,value
"Nc1cc(COc2c(Cl)cc(C[C@H](N)C(=O)O)cc2Cl)c2oc(-c3ccccc3)nc2c1 [JPH203, O-[(5-amino-2-phenyl-1,3-benzoxazol-7-yl)methyl]-3,5-dichloro-L-tyrosine]",attenuation of the increase in HW/TL ratio,"heart hypertrophy; 5 weeks of aortic stenosis, P<0.001",33%
same,attenuation of the increase in MyH7/MyH6 ratio,"heart hypertrophy; RT-PCR, P<0.001",44%
same,attenuation of the increase in BNP expression,"heart hypertrophy; RT-PCR, P=0.001",65%
same,reduction of posterior wall thickness,"heart hypertrophy; echocardiography, diastole, P=0.006",28%
same,reduction of anterior wall thickness,"heart hypertrophy; echocardiography, diastole, P=0.026",30%
same,attenuation of the development of pulmonary oedema (water content in lungs),[1]; P<0.001,56%
same,attenuation of cardiac dysfunction (reduction in ejection fraction),[1]; P=0.030,38%
same,reduction of the diastolic volume (LVEDV),"[1]; echocardiography, P=0.017",60%
same,reduction of the systolic volume (LVESV),"[1]; echocardiography, P=0.021",51%
same,reduction in the expression of PP1MK,"[2]; RT-PCR, hearts, vs control hearts, P=0.013",significantly attenuated
same,reduction in the expression of BCKDHB,"[2]; RT-PCR, hearts, vs control hearts, P=0.015",significantly attenuated
same,downregulation of genes involved in BCAA catabolism induced by TAC surgery,"[2]; microarray, myocardial samples, JPH203 treated vs sham mice",attenuates the downregulation
same,"increase in the ratio between the plasma and myocardial content of 13C6,15N-leucine (leucine uptake)",myocardial BCAA content; [3],prevented these alterations
same,"reduction in the levels of the 13C6,15N-leucine metabolite 13C-HMG",myocardial BCAA content; [3],prevented these alterations
same,"reduction in the levels of the 13C6,15N-leucine metabolite 13C-isovaleric acid",myocardial BCAA content; [3],prevented these alterations
same,"increase in the myocardial content of BCAA (valine, leucine and isoleucine)","myocardial BCAA content; LC-MS/MS, heart extracts after 2 weeks of TAC surgery, chronic administration 12.5 mg/kg/day ip",significantly attenuated
same,reduced interstitial collagen deposition,"interstitial collagen; Picrosirius Red stained heart sections, P<0.001",57%
same,attenuation in the expression of collagen III,"interstitial collagen; RT-PCR, myocardial homogenates after two weeks of TAC surgery, P=0.002",58%
same,attenuation in the expression of collagen I,"interstitial collagen; RT-PCR, myocardial homogenates after two weeks of TAC surgery, P=0.003",56%
